{"source": "patent US8759315B2", "about": "“Methods for rejuvenating” (Viacell, LLC, priority 2003, dated 2014)", "key": {"[1]": {"tested_on": "Whole blood", "test": "Rejuvenation of stored whole blood, DPG assay", "type": "cell-based", "method": "(§1) The DPG assay was as follows: • To 2 mL Tris buffer with EDTA, was added 0.05 ml ATP 40 mM plus NADH 9.6 mM; 0.04 ml PGM (Sigma kit 665PA, Sigma, Inc. St. Louis, Mo.) and 0.1 ml RBC. The reaction mixture was allowed to equilibrate for five minutes at room temperature and the absorption at 339 nm wavelength was recorded. Next was added 0.02 ml PGM and 0.02 ml glycolate-2-phosphate. The reaction was allowed to proceed for 25 minutes and the absorption at 339 nm wavelength was recorded. The packed cell DPG equals (μmol/ml)×100 divided by the hematocrit.\nAn experiment was devised to determine whether the DPG levels could be brought back to approximate initial levels, that is, whether the RBC could be rejuvenated. Whole blood with heparin as anticoagulant was held at room temperature for 6 days, at which time DPG levels were undetectable. D-ribose at 10 mM was added and the blood was incubated at 37° C. for thirty minutes. […] The incubation time will be extended to determine whether the DPG levels can be further increased."}, "[2]": {"tested_on": "RBC", "conditions": "42 days of storage at 4° C.; D-ribose: 15mM D-ribose and 10 mM phosphate added to CPD; cited from earlier work"}, "[3]": {"tested_on": "RBC", "test": "Rejuvenation with D-ribose and phosphoenolpyruvate, DPG assay", "type": "cell-based", "conditions": "six days at room temperature, then 15 mM D-ribose, 10 mM to 100 mM PEP or both, 37°, 30 minutes; day 0 about 2 μmol/ml (FIG. 3)", "method": "as §1\nThe rejuvenation experiment of Example 4 was repeated adding the high energy glycolysis intermediate phosphoenolpyruvate (PEP). Samples were held at for six days at room temperature until DPG levels were barely detectable. At that point, 15 mM D-ribose, 10 mM to 100 mM PEP or both were added and the blood incubated at 37° for 30 minutes. […] Adding PEP gave some benefit, raising the DPG levels to nearly 1 μmol/ml. Ribose also raised levels to about 1 μmol/ml. The effect of ribose plus PEP was additive: levels exceeded 1.5 μmol/ml, nearly the levels on day 0."}, "[4]": {"tested_on": "RBC", "test": "Oxygen dissociation curve (P50) of stored and rejuvenated blood", "type": "cell-based", "conditions": "six-day CPD sample rejuvenated as for Example 3A (10 mM D-ribose, 37° C., thirty minutes)", "from_the_text": "When the percent saturation of oxygen in blood is plotted against the partial pressure of oxygen (mmHg), the resulting curve is shown in FIG. 2. A shift to the right occurs when DPG is increased or pH is decreased. Consistent with the DPG experiments, the oxygen tension giving 50% saturation (P50) after six days storage in CPD was 43 mmHg. When this sample was rejuvenated as for Example 3A above, the P50 was 18.2 mmHg."}}, "data": [{"smiles": "O=C[C@H](O)[C@H](O)[C@H](O)CO", "note": "[D-ribose]", "values": [{"measurement": "DPG after rejuvenation, as part of the usual initial value", "setting": "[1]; whole blood with heparin held 6 days at room temperature (DPG undetectable), 10 mM D-ribose, 37° C., thirty minutes", "value": "about one-third"}, {"measurement": "2,3 DPG level maintained, of its initial level", "setting": "[2]", "value": "about 50%"}, {"measurement": "DPG levels after rejuvenation", "setting": "[3]", "value": "about 1 μmol/ml"}, {"measurement": "oxygen tension giving 50% saturation (P50)", "setting": "[4]", "value": 18.2, "unit": "mmHg"}]}, {"smiles": "C=C(OP(=O)(O)O)C(=O)O", "note": "[PEP, phosphoenolpyruvate]", "values": [{"measurement": "DPG levels after rejuvenation", "setting": "[3]", "value": "about 1 μmol/ml"}]}, {"smiles": "OC[C@H]1O[C@@H](n2cnc3c(O)ncnc32)[C@H](O)[C@@H]1O", "note": "[inosine]", "values": [{"measurement": "effect on rejuvenation", "setting": "[1]; ribose reduced to one mM or increased to 100 mM, inosine substituted for ribose", "value": "equally beneficial effects on rejuvenation"}]}]}
